Measurements reported in patent publication US9758559B2, “Short peptides derived from VDAC1, compositions and methods of use thereof” (B.G. NEGEV TECHNOLOGIES AND APPLICATIONS LTD., AT …, priority 2013, dated 2017).
Where no end group is shown, it is not given here.

Key:
MEC-1 cells = type: cell-based; conditions: for cell-death induction activity, in words: compared with N-Ter-Antp
Experimental: (§1) MEC-1, MO1043 and T-Rex-293 cells were grown in DMEM supplemented with 10% FCS, 2 mM L-glutamine, 1000 U/ml penicillin and 1 mg/ml streptomycin, U-87, C6 and PC3 were maintained in RPMI 1640 supplemented with 10-20% FCS, 2 mM L-glutamine, 1000 U/ml penicillin and 1 mg/ml streptomycin. All cells were maintained in a humidified atmosphere with 5% CO2 at 37° C.
(§2) PBMCs (4×10^5 or 8×10^5 cells/sample) were incubated in 200 μl serum-free medium with the examined peptide for 90 min at room temperature and centrifuged (500×g, 5 min) Cell death was analyzed by PI staining and flow cytometer (Beckton-Dickinson) and BD Cell Quest Pro software. Apoptotic cell death was also analyzed by PI and annexin V-FITC staining (Zaid H et al. 2005. 12:751-760), and by acridine orange and ethidium bromide staining and confocal microscopy (Olympus 1×81).
(§3) To optimize the VDAC1 N-terminal derived peptides with respect to stability, length and specific targeting to cancer cells, several versions of these peptides were designed and tested for their efficacy in inducing the death of CLL-derived lymphocytes and MEC-1 cells (Table 3). Cells were incubated for 90 min with increasing concentrations of the indicated peptide and death was analyzed by PI stating and FACS as described hereinabove. As is clearly shown in FIG. 1 (and Table 3), deleting 6 residues from the C-terminus of the peptide, including the GXXXG motif, yielded a non-active peptide (peptide Δ(21-26) N-Ter-Antp, SEQ ID NO:22).

CLL-derived lymphocytes = experiment: Cell death of CLL-derived lymphocytes (PBMCs of CLL patients), PI staining and FACS; type: cell-based, human; conditions: 90 min incubation, PI staining, FACS, read-out: IC50, induction of cell death, CLL
Experimental: PBMCs were isolated from venous blood of the CLL patients by Ficoll-Paque PLUS (GE Healthcare, Israel) density gradient centrifugation, as follows. Venous blood (10-20 ml) was drawn from CLL patients with satisfying diagnostic criteria for CLL or from normal adult donors. Blood was collected into heparin tubes and was diluted 1:1 with balance solution composed of two stock solutions, A (1% D-glucose, 50 mM CaCl2, 0.98 mM MgCl2, 5.4 mM KCl and 0.145 M Tris-HCl, pH 7.6) and B (0.14 M NaCl) in a 1:9 ratio. The resulting mix was carefully layered on Ficoll-Paque Plus (10 ml of diluted blood:15 ml Ficoll) in 50 ml conical tubes. The tubes were centrifuged at 400×g (with minimal acceleration and deceleration) and 18-20° C. for 40 min. […] Cells were counted by a Countess Automated Cell Counter (Invitrogen).
as §2, with “1×81). […]” for “1×81).”

MO1043 cells = experiment: Cell death of MO1043 cells, PI staining and FACS; type: cell-based, human; conditions: compared with N-Ter-Antp
Experimental: as §1, §2
as §3, with “As is clearly shown in FIG. 1 (and Table 3), deleting 6 residues from the C-terminus of the peptide, including the GXXXG motif, yielded a non-active peptide (peptide Δ(21-26) N-Ter-Antp, SEQ ID NO:22).” left out

GKSARDVFTKGYGFGLRQIKIWFQNRRMKWKK [Δ(1-10) N-Ter-Antp, GKSARDVFTKGYGFGL RQIKIWFQNRRMKWKK]
cell-death induction activity, in words (MEC-1 cells): did not significantly modified the cell-death induction activity

MAVPPTYADLGKSARDVFTKGYGFGLRQIKIWFQNRRMKWKK [N-Ter-Antp, reference compound]
IC50 (CLL-derived lymphocytes): 3.2 ± 0.5 µM | IC50 (MEC-1 cells; 90 min incubation, serum-free medium, PI staining, FACS, read-out: IC50, induction of cell death, MEC-1): 4.2 ± 0.2 µM

MAVPPTYADLGKSARDVFTKRQIKIWFQNRRMKWKK [Δ(21-26) N-Ter-Antp]
cell-death induction activity, in words (MEC-1 cells): non-active

PTYADLGKSARDVFTKGYGFGLRQIKIWFQNRRMKWKK [Δ(1-4) N-Ter-Antp]
cell-death induction activity, in words (MEC-1 cells): did not significantly modified the cell-death induction activity

RDVFTKGYGFGLRQIKIWFQNRRMKWKK [Δ(1-14) N-Ter-Antp, RDVFTKGYGFGL RQIKIWFQNRRMKWKK]
cell-death induction activity, in words (MEC-1 cells): more active

TKGYGFGL RQIKIWFQNRRMKWKK (TKGYGFGLRQIKIWFQNRRMKWKK) [Δ(1-18) N-Ter-Antp]
cell-death induction activity, in words (MO1043 cells): more active
